# Experimental data reported in ChEMBL document CHEMBL1201862, “PubChem BioAssay data set” (2004).
# Activity calls are given as the source filed them. Rule as the data show it, for most assays here: actives have a measured EC50 and inactives only a lower limit.
# How the values were obtained:
# [1] = molecular target: T1, Luciferin 4-monooxygenase (Photinus pyralis, UniProt P08659); test: Counter Screen for Luciferase-based Assay Positives. [Related pubchem assays: 620, 618, 411 ]
# [2] = reduction of Shn3 3'UTR-driven luciferase in osteoblasts – cell-based, Clone20 osteoblasts, firefly luciferase, cherry-picked, dose response (AID 624132); format: functional;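 also: firefly luciferase luminescence from reporter carrying the Shn3 3'UTR in osteoblasts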
# [3] = DRD fibroblast viability loss – cell-based, non-viral oncogenic, luminescence, dose response (AID 1934); format: functional; conditions: Homo sapiens
# [4] = molecular target: T1, Luciferin 4-monooxygenase; test: inhibition of purified Photinus pyralis luciferase – biochemical, luminescence, dose response (AID 1891)
# [5] = Luminescence Cell-Based Dose Confirmation HTS to Identify Inhibitors of Platelet Dense Granule Release. [Related pubchem assays: 1663 (Primary HTS), 1678 (Summary of Project)]; format: functional
# [6] = HEK-293T viability loss after treatment – luminescence, T-cell screen hits, cytotoxicity control for TCR NF-kB inhibitor project, dose response (AID 489026); format: functional, cell-based;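 also: cells exposed to compound about 14 hours before the viability readout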
# BJ [7] = test: cells; format: functional, cell-based; conditions: Homo sapiens
# HT-1080 = test: HT1080 cell viability loss – fluorescence readout (AID 620); format: functional, cell-based; conditions: Homo sapiens
# BJ [8] = test: BJ-TERT fibroblast viability loss – cell-based, RAS-independent, luminescence, dose response (AID 1933); format: functional; conditions: Homo sapiens
# BJ [9] = test: BJ-TERT-LT-ST fibroblast viability loss – cell-based, RAS-independent, luminescence, dose response (AID 1935); format: functional; conditions: Homo sapiens;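 also: BJ fibroblasts immortalized with TERT plus LT and ST oncogenes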
# [10] = loss of viability in HepG2 cells – cell-based, CellTiter-Glo, cherry-picked, cytotoxicity control for Shn3 inhibitor project, dose response (AID 624134); format: functional
# [11] = HEK-293T cell viability reduction – luminescence, B-cell screen hits, cytotoxicity control for BCR NF-kB inhibitor project, dose response (AID 489021); format: functional, cell-based;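 also: HEK-293T cells carrying an NF-kB luciferase reporter; cells exposed to compound for about 14 hours before viability readout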
# [12] = A Cell Based Secondary Assay To Explore Cytotoxicity of Compounds that Sensitize Mycobacterium Tuberculosis to Beta-Lactam Antibiotics.; format: functional
# [13] = alpha-synuclein stem-loop luciferase translation blockers – H4 neuroglioma cells, luminescence, confirmation (AID 1988); format: functional, cell-based
# [14] = luciferase reporter signal suppression in cells – H4 neuroglioma cells, luminescence, dose response (AID 1990); format: functional, cell-based
# Leucine aminopeptidase = molecular target: T2, Leucine aminopeptidase (Plasmodium falciparum 3D7, UniProt Q8IL11); test: P. falciparum M17LAP inhibitors, primary screen, biochemical, fluorogenic H-Leu-NHMec substrate, 1536-well (AID 1619); format: functional
# T2 sequence (Q8IL11 whole entry): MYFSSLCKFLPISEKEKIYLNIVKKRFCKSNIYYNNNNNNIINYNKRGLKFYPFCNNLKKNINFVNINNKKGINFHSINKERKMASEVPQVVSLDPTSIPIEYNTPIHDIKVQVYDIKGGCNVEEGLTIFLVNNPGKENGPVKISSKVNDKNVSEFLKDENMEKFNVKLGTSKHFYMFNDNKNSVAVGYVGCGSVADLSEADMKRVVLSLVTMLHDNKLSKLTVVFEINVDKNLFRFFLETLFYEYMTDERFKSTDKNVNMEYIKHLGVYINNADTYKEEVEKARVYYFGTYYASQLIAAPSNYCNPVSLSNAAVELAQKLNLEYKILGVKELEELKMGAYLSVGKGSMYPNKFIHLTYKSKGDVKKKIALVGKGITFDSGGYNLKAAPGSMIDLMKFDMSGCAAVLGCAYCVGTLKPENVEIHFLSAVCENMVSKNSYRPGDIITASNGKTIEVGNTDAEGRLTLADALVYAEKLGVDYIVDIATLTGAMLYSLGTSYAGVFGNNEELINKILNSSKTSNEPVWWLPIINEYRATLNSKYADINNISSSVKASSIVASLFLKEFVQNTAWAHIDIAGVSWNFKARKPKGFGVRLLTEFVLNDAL
# Aminopeptidase N = molecular target: T3, Aminopeptidase N (Plasmodium falciparum FcB1/Columbia, UniProt O96935); test: malaria alanyl aminopeptidase activity blockers – biochemical, fluorogenic H-Leu-NHMec substrate, 1536-well (AID 1445); parameters: species or system Plasmodium falciparum 3D7, 3D7
# T3 sequence (O96935 whole entry): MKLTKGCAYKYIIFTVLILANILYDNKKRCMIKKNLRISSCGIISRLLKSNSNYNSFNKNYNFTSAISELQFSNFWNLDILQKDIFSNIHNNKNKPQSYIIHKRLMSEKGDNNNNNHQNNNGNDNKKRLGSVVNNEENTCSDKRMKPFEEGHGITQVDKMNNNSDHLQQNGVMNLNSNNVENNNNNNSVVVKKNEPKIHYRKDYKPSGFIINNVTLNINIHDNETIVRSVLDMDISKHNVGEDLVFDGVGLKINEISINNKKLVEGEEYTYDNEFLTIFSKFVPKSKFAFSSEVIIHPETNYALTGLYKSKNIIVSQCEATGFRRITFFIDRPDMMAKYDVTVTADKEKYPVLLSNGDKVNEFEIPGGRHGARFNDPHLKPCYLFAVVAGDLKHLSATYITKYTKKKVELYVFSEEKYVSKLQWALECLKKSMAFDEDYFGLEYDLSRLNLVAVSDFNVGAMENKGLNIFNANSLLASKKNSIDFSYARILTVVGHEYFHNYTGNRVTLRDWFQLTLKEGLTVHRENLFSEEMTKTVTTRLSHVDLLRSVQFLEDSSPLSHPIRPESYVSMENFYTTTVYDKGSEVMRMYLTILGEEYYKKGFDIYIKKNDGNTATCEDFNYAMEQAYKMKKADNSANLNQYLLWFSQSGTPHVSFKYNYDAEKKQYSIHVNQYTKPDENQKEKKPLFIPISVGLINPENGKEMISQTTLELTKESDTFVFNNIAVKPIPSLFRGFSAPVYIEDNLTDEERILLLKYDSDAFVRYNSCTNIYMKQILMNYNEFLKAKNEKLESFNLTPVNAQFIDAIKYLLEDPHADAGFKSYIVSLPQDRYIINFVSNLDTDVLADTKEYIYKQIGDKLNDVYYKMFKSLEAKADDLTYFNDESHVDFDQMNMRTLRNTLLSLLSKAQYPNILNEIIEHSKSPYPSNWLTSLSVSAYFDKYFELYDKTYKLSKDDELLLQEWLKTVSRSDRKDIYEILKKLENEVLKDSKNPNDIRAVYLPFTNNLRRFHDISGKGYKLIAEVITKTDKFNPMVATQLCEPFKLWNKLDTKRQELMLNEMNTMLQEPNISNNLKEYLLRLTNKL
# NS3 = NS3 (Hepatitis C virus, UniProt A3EZJ3); test: PubChem AID 2173; parameters: species or system Hepacivirus hominis
# Sequence of NS3 (A3EZJ3 whole entry): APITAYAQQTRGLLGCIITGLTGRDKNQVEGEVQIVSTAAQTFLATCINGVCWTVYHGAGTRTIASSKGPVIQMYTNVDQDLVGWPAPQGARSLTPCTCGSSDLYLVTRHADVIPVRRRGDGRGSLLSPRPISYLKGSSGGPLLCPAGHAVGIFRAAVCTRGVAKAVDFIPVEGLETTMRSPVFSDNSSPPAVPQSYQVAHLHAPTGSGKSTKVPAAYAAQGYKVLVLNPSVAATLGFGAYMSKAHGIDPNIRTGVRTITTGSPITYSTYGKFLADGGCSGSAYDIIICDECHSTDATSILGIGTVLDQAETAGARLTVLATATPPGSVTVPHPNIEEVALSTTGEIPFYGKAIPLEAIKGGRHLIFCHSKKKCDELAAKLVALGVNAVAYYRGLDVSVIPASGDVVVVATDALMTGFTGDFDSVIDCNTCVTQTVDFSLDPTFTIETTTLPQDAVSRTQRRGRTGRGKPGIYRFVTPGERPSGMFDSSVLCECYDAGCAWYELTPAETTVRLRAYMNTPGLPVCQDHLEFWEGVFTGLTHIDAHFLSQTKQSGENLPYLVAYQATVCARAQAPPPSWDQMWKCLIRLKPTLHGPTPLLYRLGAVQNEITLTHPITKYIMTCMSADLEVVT
# [15] = Trypanosoma cruzi growth suppression in host cells – NIH3T3 host cells, beta-gal luminescence, confirmation (AID 2044); format: functional, cell-based;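 also: intracellular parasites grown in NIH/3T3 mouse fibroblasts as host cells; luminescent beta-galactosidase reporter signal from transgenic T. cruzi replicating inside host cells; inhibitors lower the luminescence signal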
# [16] = molecular target: Voltage-dependent T-type calcium channel subunit alpha-1H (Homo sapiens, UniProt O95180); format: functional;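 also: channel activity triggered by adding a high calcium stimulation buffer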
# Sequence of Voltage-dependent T-type calcium channel subunit alpha-1H (O95180 whole entry): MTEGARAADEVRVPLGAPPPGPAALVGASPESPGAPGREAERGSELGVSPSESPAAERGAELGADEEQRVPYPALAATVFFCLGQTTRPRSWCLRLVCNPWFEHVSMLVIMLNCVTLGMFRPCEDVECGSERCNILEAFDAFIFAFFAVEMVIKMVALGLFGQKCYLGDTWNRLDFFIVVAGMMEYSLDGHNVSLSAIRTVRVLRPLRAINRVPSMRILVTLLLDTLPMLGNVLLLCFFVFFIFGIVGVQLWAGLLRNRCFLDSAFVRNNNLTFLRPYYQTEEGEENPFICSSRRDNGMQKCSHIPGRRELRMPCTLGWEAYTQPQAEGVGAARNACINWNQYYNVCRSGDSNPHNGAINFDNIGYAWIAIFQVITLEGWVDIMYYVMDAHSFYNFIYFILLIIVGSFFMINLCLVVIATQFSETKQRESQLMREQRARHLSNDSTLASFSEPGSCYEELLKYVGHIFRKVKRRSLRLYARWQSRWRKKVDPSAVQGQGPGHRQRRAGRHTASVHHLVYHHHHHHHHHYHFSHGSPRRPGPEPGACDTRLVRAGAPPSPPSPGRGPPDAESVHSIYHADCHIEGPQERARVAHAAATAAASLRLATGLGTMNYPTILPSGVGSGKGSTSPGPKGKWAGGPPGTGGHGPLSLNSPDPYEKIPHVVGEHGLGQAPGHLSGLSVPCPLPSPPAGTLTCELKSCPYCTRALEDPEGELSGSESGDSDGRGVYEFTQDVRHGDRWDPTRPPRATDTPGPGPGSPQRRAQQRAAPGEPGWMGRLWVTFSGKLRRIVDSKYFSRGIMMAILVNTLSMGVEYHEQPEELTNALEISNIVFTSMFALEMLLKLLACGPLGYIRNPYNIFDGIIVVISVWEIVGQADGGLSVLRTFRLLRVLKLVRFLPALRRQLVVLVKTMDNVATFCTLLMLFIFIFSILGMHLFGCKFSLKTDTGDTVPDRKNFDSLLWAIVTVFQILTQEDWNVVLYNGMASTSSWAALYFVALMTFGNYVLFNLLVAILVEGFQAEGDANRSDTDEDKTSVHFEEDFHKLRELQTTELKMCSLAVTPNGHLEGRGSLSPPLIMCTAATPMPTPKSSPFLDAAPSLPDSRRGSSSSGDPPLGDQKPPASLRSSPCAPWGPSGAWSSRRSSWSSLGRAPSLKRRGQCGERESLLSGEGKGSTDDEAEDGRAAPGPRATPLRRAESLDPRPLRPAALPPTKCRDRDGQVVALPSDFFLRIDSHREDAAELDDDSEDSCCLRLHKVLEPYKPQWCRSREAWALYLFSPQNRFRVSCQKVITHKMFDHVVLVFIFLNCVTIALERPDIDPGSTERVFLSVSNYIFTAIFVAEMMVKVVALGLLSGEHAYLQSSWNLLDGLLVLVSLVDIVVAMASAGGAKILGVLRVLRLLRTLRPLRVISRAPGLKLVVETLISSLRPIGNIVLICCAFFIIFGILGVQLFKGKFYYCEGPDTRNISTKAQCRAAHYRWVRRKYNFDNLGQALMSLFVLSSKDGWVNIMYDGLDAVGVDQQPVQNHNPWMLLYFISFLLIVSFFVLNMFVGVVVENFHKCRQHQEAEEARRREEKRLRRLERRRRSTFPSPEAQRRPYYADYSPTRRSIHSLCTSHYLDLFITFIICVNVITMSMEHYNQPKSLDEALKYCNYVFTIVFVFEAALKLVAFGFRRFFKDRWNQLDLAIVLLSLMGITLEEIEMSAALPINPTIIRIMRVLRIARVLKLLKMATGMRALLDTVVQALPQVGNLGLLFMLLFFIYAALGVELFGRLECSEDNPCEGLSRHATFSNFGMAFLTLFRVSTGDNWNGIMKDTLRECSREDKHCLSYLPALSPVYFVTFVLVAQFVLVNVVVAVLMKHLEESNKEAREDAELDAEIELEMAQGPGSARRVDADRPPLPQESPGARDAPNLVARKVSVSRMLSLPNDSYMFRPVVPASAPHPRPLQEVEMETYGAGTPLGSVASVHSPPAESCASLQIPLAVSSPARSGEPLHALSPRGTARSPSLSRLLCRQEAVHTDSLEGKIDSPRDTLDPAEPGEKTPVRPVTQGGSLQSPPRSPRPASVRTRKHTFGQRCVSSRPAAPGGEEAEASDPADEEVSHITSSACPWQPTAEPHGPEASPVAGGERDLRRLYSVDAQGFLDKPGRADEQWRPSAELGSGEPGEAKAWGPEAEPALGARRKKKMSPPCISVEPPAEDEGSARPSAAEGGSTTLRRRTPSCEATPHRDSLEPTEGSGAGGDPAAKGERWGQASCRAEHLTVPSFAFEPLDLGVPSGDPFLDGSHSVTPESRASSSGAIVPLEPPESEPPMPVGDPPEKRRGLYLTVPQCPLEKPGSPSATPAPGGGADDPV
# [17] = NIH3T3 cell viability loss – ATP luminescence, mouse fibroblasts, counter-screen, dose response (AID 2010); format: functional, cell-based;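 also: cells exposed to compound for about 90 hours before reading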
# T1 sequence (P08659 whole entry): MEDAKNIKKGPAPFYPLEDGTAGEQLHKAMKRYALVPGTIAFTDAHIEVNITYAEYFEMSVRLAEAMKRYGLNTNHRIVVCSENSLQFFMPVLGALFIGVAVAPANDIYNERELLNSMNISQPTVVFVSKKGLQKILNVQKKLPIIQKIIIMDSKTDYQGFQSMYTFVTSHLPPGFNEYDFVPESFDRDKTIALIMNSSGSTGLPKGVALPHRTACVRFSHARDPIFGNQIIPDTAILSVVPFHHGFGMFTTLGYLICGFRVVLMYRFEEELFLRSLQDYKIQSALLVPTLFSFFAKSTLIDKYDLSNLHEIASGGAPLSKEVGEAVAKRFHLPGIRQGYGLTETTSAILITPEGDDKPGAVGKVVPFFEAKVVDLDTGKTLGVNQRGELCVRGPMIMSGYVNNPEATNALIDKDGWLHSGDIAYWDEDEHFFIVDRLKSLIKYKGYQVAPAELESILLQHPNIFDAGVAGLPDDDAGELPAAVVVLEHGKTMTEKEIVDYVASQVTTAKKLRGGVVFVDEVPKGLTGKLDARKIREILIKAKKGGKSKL
structure (smiles),measurement,setting,value
Cc1ccc(-c2nc(-c3ccccn3)no2)cc1,EC50,[1],0.81 µM (active)
same,AC50,[2],1.96 µM (active)
same,EC50,[3],5.41 µM (active)
same,EC50,[4],0.593 µM (active)
same,EC50,[5],2.52 µM (active)
same,IC50,[6],> 80 µM (inactive)
same,EC50,BJ [7],5.39 µM (active)
same,EC50,HT-1080,> 50 µM (not active)
same,EC50,BJ [8],7.04 µM (active)
same,EC50,BJ [9],17.4 µM (active)
same,AC50,[10],8.99 µM (active)
COc1cccc(C(=O)/C=C/Nc2cccc(O)c2)c1,EC50,[1],0.56 µM (active)
same,EC50,[4],1.38 µM (active)
same,EC50,[5],2.07 µM (active)
same,EC50,HT-1080,> 50 µM (not active)
O=C(Nc1nc2nc(-c3ccccc3)cc(-c3ccccc3)n2n1)c1ccco1,IC50,[11],> 80 µM (inactive)
COc1cc(/C=C/C(=O)OCC(=O)Nc2cc(C)c(C)cc2[N+](=O)[O-])ccc1O,CC50,[12],> 40 µM (active)
Cc1nc2cc(-c3cccc(F)c3)nn2c(C)c1CCC(=O)NC(C)CCc1ccco1 (centres undefined),EC50,[1],0.27 µM (active)
same,EC50,[13],5.87 µM (active)
same,EC50,[14],2.36 µM (active)
same,EC50,HT-1080,> 50 µM (not active)
same,IC50,[11],> 80 µM (inactive)
O=C(NCc1ccccc1)c1ccc2c(=O)[nH]c3c(C(=O)NCC4CCCO4)sc(=S)n3c2c1 (centres undefined),IC50,Leucine aminopeptidase,8.61 µM (active)
same,IC50,Aminopeptidase N,29.2 µM (active)
ClCc1nnc(-c2ccccc2)o1,IC50,[11],> 80 µM (inactive)
O=C1OC(c2ccco2)=N/C1=C\c1ccc(-c2cccc(C(F)(F)F)c2)o1,IC50,NS3,22.1 µM (not active)
Cc1ccc(NC(=O)C(Cc2ccccc2)N2C(=O)C3C4CCC(C4)C3C2=O)cc1Cl (centres undefined),EC50,[15],0.871 µM (active)
same,EC50,[16],5.73 µM (active)
same,EC50,[17],> 60 µM (not active)
